Source: publication PMC4076079, “Selective inhibitors of a PAF biosynthetic enzyme lysophosphatidylcholine acyltransferase 2” (Journal of Lipid Research, 2014)

Legend:
hLPCAT2 = target: T1, hLPCAT2 (Homo sapiens, UniProt Q7L5N7); experiment: kinetic analysis of lyso-PAFAT activity; assay type: biochemical; conditions: lyso-PAFAT activity of hLPCAT2, competitive with acetyl-CoA; Dixon plot, Prism; mcPAF-stimulated microsomes; read-out: Inhibition constant (apparent Ki value)
T1 construct: expressed in transfected cells; host or cells: CHO-S-PAFR cells (microsomal fraction), with or without mcPAF stimulation
T1 sequence (Q7L5N7 1-544): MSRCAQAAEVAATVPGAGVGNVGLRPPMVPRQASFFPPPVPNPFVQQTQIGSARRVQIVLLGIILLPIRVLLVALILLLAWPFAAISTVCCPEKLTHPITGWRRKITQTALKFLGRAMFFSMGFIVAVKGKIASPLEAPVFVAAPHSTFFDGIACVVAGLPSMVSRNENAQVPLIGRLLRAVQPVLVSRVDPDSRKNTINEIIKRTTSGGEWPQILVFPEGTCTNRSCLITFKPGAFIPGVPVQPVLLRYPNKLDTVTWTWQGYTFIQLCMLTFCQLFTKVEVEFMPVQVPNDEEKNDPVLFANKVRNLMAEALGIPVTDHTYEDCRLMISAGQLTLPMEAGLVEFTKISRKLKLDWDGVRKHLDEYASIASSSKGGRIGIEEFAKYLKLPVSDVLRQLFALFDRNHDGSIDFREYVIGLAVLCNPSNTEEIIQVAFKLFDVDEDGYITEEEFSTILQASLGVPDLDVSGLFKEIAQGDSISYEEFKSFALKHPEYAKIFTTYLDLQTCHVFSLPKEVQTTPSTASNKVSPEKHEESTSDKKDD
Procedure: Microsomal protein fractions (0.5 μg) supplemented with the indicated compound concentrations were added to the reaction mixture containing 100 mM Tris-HCl (pH 7.4), 1 μM CaCl2, 0.015% Tween-20, and two substrates. For acetyltransferase activity, the substrates were 1 mM acetyl-CoA and 5 μM d4-lyso-PAF; for the acyltransferase activity of LPCAT1 or LPCAT2, the substrates were, respectively, palmitoyl-CoA and d31-16:0 LPC or arachidonoyl-CoA and d4-lyso-PAF (all 5 μM). Each lysophospholipid contained fatty acid at the sn-1 position. After incubation at 37°C for 5 min, the reactions were stopped by adding 300 μl methanol containing 17:0 LPC or 14:0/14:0 PC as an internal standard. Deuterium-labeled products were analyzed by LC-MS/MS (Waters, Milford, MA and Thermo Scientific, Waltham, MA).
To investigate the mechanism by which TSI-01 inhibited lyso-PAFAT activity of hLPCAT2, kinetic analysis was performed. CHO-S-PAFR cells overexpressing hLPCAT2 were stimulated with or without mcPAF for 30 s and analyzed for lyso-PAFAT activity in the microsomal fraction. […] Inhibition constant (apparent Ki value) of TSI-01 was also calculated as 30–40 nM using Prism software (Fig. 6D).
Fig. 6. Effects of TSI-01 on kinetics of LPCAT2 enzymatic activity. […]

PLA2 = PLA2 assay; assay type: biochemical, mouse; conditions: 20 μM compound, soluble protein fraction of peritoneal macrophages; data not shown
Procedure: PAF-AH and PLA2 activities were determined as previously described ([3]). Briefly, a soluble protein fraction of peritoneal macrophages was incubated with 20 μM of each compound at 37°C for 30 min in a total volume of 0.1 ml. For the PAF-AH assay, the reaction mixture contained 2.5 μg protein, 50 mM Tris-HCl (pH 7.4), 5 mM EDTA, 5 mM 2-mercaptoethanol, and 1 μM d4-PAF. For the PLA2 assay, 10 μg protein was incubated in buffer containing 100 mM Tris-HCl (pH 7.4), 1 mg/ml BSA, 4 mM CaCl2, 1 mM DTT, and 2 μM 16:0/20:4 alkyl-PC. A cytosolic PLA2 inhibitor, pyrrophenone (Sigma-Aldrich), was used as a positive control. The reactions were stopped with 0.27 ml of chloroform/methanol (1:2, v/v), followed by the sequential addition of an internal standard (17:0 LPC or d4-lyso-PAF), 0.11 ml chloroform, and 0.1 ml water. Lipids were extracted using the Bligh and Dyer method ([26]). The PAF-AH and PLA2 activities were measured by detecting d4-lyso-PAF and nonlabeled lyso-PAF, respectively, using LC-MS/MS.

`CC(C)OC(=O)c1ccc(N2C(=O)C(Cl)=C(Cl)C2=O)cc1` [TSI-01, propan-2-yl 4-(3,4-dichloro-2,5-dioxopyrrol-1-yl)benzoate] was tested, and the Ki (hLPCAT2) was 30 to 40 nM and the PLA2 activity (PLA2) was “not PLA2 activity”.
